How the values were obtained:
[1] = test system: tumor cells derived from ATL acute patients; experiment: Apoptosis assay (annexin V-FITC/PI, DIOC), acute ATL cells; type: cell-based, human
Description: Two million of PBMC from HTLV-1 patients were treated for 96 h with IL-2 and PHA in the presence or absence of A24 (10 μg/ml), 30.9 (10 μg/ml) or of the apoptosis-inducing agent VP16 (100 ng/ml). Cells were then washed with ice-cold PBS and incubated with a combination of annexin V-FITC and propidium iodide (PI) (Beckman-Coulter, Marseilles, France), according to the manufacturer recommendations. Alternatively, the apoptosis was evaluated through mitochondrial membrane depolarization with the DIOC staining (Molecular Probes) as described earlier (ZERMATI et al., J Exp Med., 193, 247-254, 2001).
Fe deprivation induces a variety of consequences, such as the reduction of cell proliferation and the activation of programmed cell death (HAQ et al., Exp Hematol., 23, 428-432, 1995), a phenomenon associated with phosphatidylserine exposure and mitochondrial membrane depolarization. […] The results are shown of FIGS. 7 A and 7B.
Comparative effect of A24, 30.9 and VP 16 on the induction of programmed cell death in selected cells. Cells were activated or not with PHA and IL-2 and incubated in the presence of 30.9, A24 and VP16. Apoptotic and necrotic cells were followed by flow cytometry using an annexin-V-FITC/PI kit. […] Data represents one out of three different experiments.

CD20 = biological target: T1, CD20 (Homo sapiens, UniProt P11836); experiment: CD20 expression at the surface of MCL cell lines, flow cytometry; type: cell-based; conditions: Rituximab 10 μg/ml, 30 minutes to 72 hours
T1 construct: target receptors TfR and CD20 at the surface of a MCL cell line EBV+ and a MCL cell line EBV^−; endogenous in cells; host or cells: MCL-derived B-cell lines (EBV+ and EBV-)
T1 sequence (P11836 1-297): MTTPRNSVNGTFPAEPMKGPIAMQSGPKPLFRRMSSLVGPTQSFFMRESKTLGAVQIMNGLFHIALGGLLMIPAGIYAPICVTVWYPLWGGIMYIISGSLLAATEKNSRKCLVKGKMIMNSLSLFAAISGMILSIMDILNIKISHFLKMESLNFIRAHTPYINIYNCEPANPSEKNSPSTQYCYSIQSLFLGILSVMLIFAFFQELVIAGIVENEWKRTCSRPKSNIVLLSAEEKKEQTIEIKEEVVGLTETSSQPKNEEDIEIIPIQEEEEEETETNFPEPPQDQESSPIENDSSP
Description: In a first time, we checked by flow cytometry the rate of expression of TfR and CD20 on […] B-cells lines (EBV+ and EBV^−) derived from MCL5. using an anti-CD71-PE antibody (Beckman-Coulter) and an anti-CD20-PE antibody (Becton Dickinson). The results are shown on FIGS. 8 A and B. The gray histograms respectively represent the rate of expression of the CD71 (A) and of the CD20 (B) at the surface of MCL cells EBV+ (a,b,c,e,f,g) or EBV^− (d). This rate is specified on each histogram after substraction of the background noise of the staining.
The results are shown on FIGS. 9A (A24) and 9B (Rituximab).

EBV+ and EBV− MCL lines = experiment: MCL cell proliferation, radioactive thymidine incorporation; type: cell-based, human; conditions: 72 hours, […] to 20 μg/ml
Description: The cellular proliferation is expressed as a percent of the proliferation of untreated control cells. The results are shown on FIG. 10.

[2] = test system: resting T cells co-cultured with dendritic cells; experiment: Allogeneic Mixed Leukocyte Reaction (MLR), DC-induced T cell proliferation; type: cell-based, human; conditions: 6 days of culture
Description: Peripheral blood mononuclear cells (PBMC) were isolated as described earlier by the standard Ficoll-Paque method (Amersham Life Science, Buckinghamshire, U.K.) (BAZARBACHI et al, Blood., 93, 278-283, 1999). The healthy volunteers and the 4 acute and 3 chronic ATL patients (classified following Shirono criteria) (SHIRONO et al., Leukemia., 8, 1834-1837, 1994) had all given their informed consent. ATL tumor cells represented between 60-90% of the T cell population. Each cell type was freshly cultured in conditioned RPMI-1640 medium supplemented with 10% of fetal calf serum (FCS, Gibco BRL) and a mixture of interleukin-2 (20 U/ml IL-2) and phytohemagglutinin (4 μg/ml PHA). Mixed leukocyte reaction (MLR) was performed as described earlier (TORDJMAN et al., Nat Immunol., 3, 477-482, 2002). CIB tropical spastic paraparesis (HAM/TSP) cell line was cultured in RPMI-1640 medium supplemented with 10% of FCS.
To test if A24 could also block physiologically activated T cell proliferation, we examined the effect of A24 in allogeneic Mixed Leukocyte Reaction (MLR). DC-induced allogenic T cell proliferation was evaluated after 6 days of culture in the presence of A24, control antibody (30.9) or arsenic trioxide (Ars). The results are shown in FIG. 1 B. Data represents means SD of one out of three separate experiments. […]

[3] = test system: HTLV-1 infected T cell clones; experiment: Emergence of HTLV-1 infected T cell clones, 2-week culture; type: cell-based, human; conditions: chronic ATL PBMC, single dose on first day, 2 weeks
Description: HTLV-1 infected cells can proliferate in vitro, but the clones that proliferate in culture are generally not the same as those that proliferate in the patient. To verify if A24 could inhibit the emergence of HTLV-1 infected T cell clones, we cultured cells freshly isolated from patients and from healthy individuals in the presence or absence of A24. PBMC from HTLV-1 infected patients with a chronic ATL form were plated in culture wells with the 30.9, A24 or Ars for 2 weeks. Emergence of HTLV-1 clones was evaluated by [3H] thymidine incorporation. After 2 weeks of culture, the appearance of proliferating cells was assessed by [3H] thymidine incorporation.

[4] = test system: PBMC from HTLV-I infected patients with acute or chronic ATL; experiment: Proliferation of PBMC from ATL patients, PHA/IL-2, [3H] thymidine incorporation; type: cell-based, human; conditions: PHA/IL-2, 72 h
Description: (§1) PBMC were resuspended in RPMI-1640 with 10% FCS, and added in triplicates at the concentration of 10^5 cells/well in 96-well tissue culture plates (Falcon, Oxnard, Calif.). Proliferation was measured over 18 h, using pulses with 1 μCi/well of [^3H]-thymidine (Amersham Life Science, Buckinghamshire, U.K.). Cells were then harvested with a 96-well Harvester (Pharmacia, St. Quentin, France), collected on filters (Pharmacia) and the incorporation of [^3H] thymidine was measured with β-plate microscintillation counter (LKB, Pharmacia).
PBMC from healthy individuals (a) and HTLV-I infected patients with an acute ATL (b) or a chronic ATL (c) were plated in culture wells with A24 or a control antibody (30.9) in the presence of PHA/IL-2, for 72 h before [3H] thymidine incorporation. The results are shown on FIG. 2C.
(§2) TfR expression is essential for the proliferation of both normal and malignant T cells. While TfR expression in normal T cells is tightly coupled to interleukin-2 receptor expression, TfR expression in malignant cells is usually constitutive. It was previously shown that the anti-IL-2Rα can efficiently block the ex vivo proliferation of cells derived from chronic ATL patients. […] Proliferation of these cells was then measured by [^3H] thymidine incorporation. […]

[5] = test system: peripheral blood leukocytes (PBMC); experiment: Proliferation of PHA/IL-2-activated PBMC from healthy individuals, [3H]-thymidine incorporation; type: cell-based, human; conditions: PHA/IL-2, 72 h
Description: as §1
To investigate the activity of A24 on peripheral blood leukocytes (PBMC) proliferation, cells were activated with PHA/IL-2 and incubated with different concentrations of A24 (0 to 50 μg/ml) or control antibody (30.9) (0 to 50 μg/ml) for 72 h before [^3H]-thymidine incorporation.
as §2

For `COc1cc([C@@H]2c3cc4c(cc3[C@@H](O[C@@H]3O[C@@H]5CO[C@@H](C)O[C@H]5[C@H](O)[C@H]3O)[C@H]3COC(=O)[C@H]23)OCO4)cc(OC)c1O` [VP 16], the annexin-V staining ([1]; A24 10 μg/ml, VP16 100 ng/ml, 96 h) was “a large population that stained brightly with annexin-V appeared” and the “DIOC staining (mitochondrial depolarization)” value ([1]; activated leukocytes from ATL acute patient) was “drastic reduction”.

For “Rituximab: anti-CD20 antibody manufactured by Genentech”, the “expression of the CD20” value (CD20) was “does not induce notable reduction” and the “inhibition of MCL proliferation” value (EBV+ and EBV− MCL lines) was at most 20%.

arsenic trioxide was tested, and the “effect on T cell proliferation” value [2] was “block T cell proliferation” and the “effect on proliferation of HTLV-1 infected T cell clones” value [3] was “more efficient than A24”.

B1: anti-IL-2Rα: anti-IL-2Rα monoclonal antibody (Zenapax from Hoffmann-La Roche) (antibody, chains of the INN, looked up, V domains shown)
VH: QVQLVQSGAEVKKPGSSVKVSCKASGYTFTSYRMHWVRQAPGQGLEWIGYINPSTGYTEYNQKFKDKATITADESTNTAYMELSSLRSEDTAVYYCARGGGVFDYWGQGTLVTVSS
VL: DIQMTQSPSTLSASVGDRVTITCSASSSISYMHWYQQKPGKAPKLLIYTTSNLASGVPARFSGSGSGTEFTLTISSLQPDDFATYYCHQRSTYPLTFGQGTKVEVK
For B1, the “effect on cell proliferation, acute ATL” value ([4]; acute ATL) was “did not block”, the “effect on cell proliferation, chronic ATL” value ([4]; chronic ATL) was “significantly inhibited” and the “effect on PHA/IL-2-induced cell proliferation” value [5] was “significantly inhibited”.
